One may read the IC50 as the concentration that gives 50% inhibition. A low value points to greater potency in that assay.

This assay deals with T1, GluN2A (Homo sapiens, UniProt Q12879).
T1 construct: host or cells: HEK 293
Briefly: FLIPR functional receptor assay, GluN2A. Format: cell-based. As to the method:
Receptor functional & binding assays
Functional assays of all GABAA, NMDA (GluN2A–GluN2D) and AMPA (GluA2) receptor subunits were performed by SB Drug Discovery as a part of their CNS discovery panel using FLIPR technology. Briefly, receptor-expressing HEK 293 cell lines were incubated in a red membrane potential dye in HEPES:HBSS pH 7.4 buffer and the fluorescence (λex: 488, λex: 510–570) was monitored over time as the test compounds and/or reference compounds were added to the solution. In agonist assay, only test compounds were added. In positive allosteric modulator assay, cells were preincubated with test compounds and then low concentration (approximately EC20) of an appropriate agonist was added. In antagonist assay, cells were preincubated with test compounds and then high concentration (approximately EC80) of an appropriate agonist was added. For GABAA assays, GABA was used as the agonist, picrotoxin was used as the reference antagonist and allopregnanolone was used as the reference positive allosteric modulator (PAM). For NMDA assays, a mixture of glutamate, glycine and CaCl2 was used as the agonist, MK801 was the reference antagonist and pregnenolone sulfate or GNE 9278 were used as reference PAMs. […] All compounds were tested at 7 concentration points in triplicate and EC50/IC50 was determined where applicable. […]

Molecules are shown by their SMILES.

T1 sequence (Q12879 23-1464, other chains not shown): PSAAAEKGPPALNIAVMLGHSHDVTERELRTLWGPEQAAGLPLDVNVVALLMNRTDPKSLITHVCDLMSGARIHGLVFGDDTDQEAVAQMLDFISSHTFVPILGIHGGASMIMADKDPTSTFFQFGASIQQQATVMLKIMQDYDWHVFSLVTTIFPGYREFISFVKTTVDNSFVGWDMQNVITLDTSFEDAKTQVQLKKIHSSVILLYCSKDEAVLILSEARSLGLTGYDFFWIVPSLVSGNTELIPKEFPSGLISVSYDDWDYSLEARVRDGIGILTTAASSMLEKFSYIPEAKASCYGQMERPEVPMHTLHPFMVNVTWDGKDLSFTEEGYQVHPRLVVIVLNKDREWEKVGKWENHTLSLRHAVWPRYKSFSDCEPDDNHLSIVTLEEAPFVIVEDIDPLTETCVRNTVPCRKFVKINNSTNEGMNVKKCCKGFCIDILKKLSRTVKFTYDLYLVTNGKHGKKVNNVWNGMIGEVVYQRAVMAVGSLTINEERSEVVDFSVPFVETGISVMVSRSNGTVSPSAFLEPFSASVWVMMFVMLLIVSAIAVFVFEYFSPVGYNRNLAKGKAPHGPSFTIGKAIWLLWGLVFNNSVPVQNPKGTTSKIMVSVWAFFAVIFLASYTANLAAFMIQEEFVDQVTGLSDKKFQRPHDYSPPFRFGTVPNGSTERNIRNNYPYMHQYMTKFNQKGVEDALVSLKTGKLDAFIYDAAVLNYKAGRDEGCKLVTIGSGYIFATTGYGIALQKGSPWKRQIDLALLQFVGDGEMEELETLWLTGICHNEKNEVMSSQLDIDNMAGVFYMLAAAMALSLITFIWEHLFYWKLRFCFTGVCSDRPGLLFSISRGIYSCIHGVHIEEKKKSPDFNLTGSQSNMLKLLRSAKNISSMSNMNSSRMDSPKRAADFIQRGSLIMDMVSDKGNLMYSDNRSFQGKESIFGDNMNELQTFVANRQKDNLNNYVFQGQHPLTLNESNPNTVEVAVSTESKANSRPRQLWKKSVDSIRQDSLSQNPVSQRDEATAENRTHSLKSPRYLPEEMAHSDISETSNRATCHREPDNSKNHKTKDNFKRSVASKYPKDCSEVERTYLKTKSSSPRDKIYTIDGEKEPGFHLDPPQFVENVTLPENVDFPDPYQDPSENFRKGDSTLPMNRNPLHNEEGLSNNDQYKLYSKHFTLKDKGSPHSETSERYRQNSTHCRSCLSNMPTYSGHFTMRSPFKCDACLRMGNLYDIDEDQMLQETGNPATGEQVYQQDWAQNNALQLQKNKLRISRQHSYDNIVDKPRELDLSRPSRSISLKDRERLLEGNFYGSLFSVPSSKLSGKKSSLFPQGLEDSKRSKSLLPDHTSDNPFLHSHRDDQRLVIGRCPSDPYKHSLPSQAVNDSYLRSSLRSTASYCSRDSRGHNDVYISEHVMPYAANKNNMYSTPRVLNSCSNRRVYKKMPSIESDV

As to `C[C@@](N)(CCC(=O)O)C(=O)O` [(R)-2MeGlu, (R)-2-methylglutamic acid], the “Activity against GluN2A (in words)” value is “weak antagonist behavior”. The half-inhibitory concentration (IC50) (antagonist mode, top test concentration 100 μM) is 69 µM.

The values are drawn from paper PMC8047011, “Enantiomers of 2-methylglutamate and 2-methylglutamine selectively impact mouse brain metabolism and behavior” (Scientific Reports, 2021).
